ChEMBL document CHEMBL3714734, “Modulators of G protein-coupled receptor 88” (2013)

What follows are compounds tested against T1, G protein-coupled receptor 88 (Homo sapiens, UniProt Q9GZN0) (assay: Modulator activity at GPR88 (unknown origin) incubated for 30 mins by cell based cAMP HTRF assay).
Assay type: functional

T1 sequence (Q9GZN0 whole entry): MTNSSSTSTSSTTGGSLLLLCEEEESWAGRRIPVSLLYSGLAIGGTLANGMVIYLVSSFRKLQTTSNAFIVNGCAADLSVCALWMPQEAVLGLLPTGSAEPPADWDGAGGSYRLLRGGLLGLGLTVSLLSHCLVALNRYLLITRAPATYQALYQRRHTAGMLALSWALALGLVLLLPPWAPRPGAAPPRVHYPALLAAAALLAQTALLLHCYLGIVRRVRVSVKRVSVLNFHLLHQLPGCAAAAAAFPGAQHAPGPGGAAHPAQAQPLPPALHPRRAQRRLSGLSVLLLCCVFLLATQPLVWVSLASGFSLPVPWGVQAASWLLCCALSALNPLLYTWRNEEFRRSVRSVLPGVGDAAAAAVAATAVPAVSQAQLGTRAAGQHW

EC50, ≤ 0.13 µM:
CCC(CC)COc1ccc([C@H](CO)NC(=O)[C@H]2C[C@@H]2c2cccs2)c(C)c1
CCC(CC)COc1ccc([C@H](CO)NC(=O)[C@H]2C[C@@H]2c2cccs2)cc1
CCCC(C)COc1ccc([C@H](CO)NC(=O)[C@H]2C[C@@H]2c2cccs2)c(C)c1 (stereo partly drawn)
CC[C@H](C)COc1ccc([C@H](CN2CCN(C)CC2)NC(=O)[C@H]2C[C@@H]2c2cccs2)cc1
CCCC#Cc1ccc([C@H](CO)NC(=O)[C@H]2C[C@@H]2c2cccs2)c(OC)c1
CC[C@H](C)COc1ccc([C@H](CO)NC(=O)[C@H]2C[C@@H]2c2cccs2)c(C)c1
Cc1ccc(-c2ccc([C@H](CO)NC(=O)[C@H]3C[C@@H]3c3cccs3)cc2)cc1

Each compound was assayed against T1, G protein-coupled receptor 88 (assay: Modulator activity at GPR88 (unknown origin) expressed in cell membranes incubated for 1 hr by liquid scintillation counting based [35S]GTPgammaS binding assay).
Assay type: functional

EC50, ≤ 0.13 µM:
CC[C@H](C)COc1ccc([C@H](CN)NC(=O)[C@H]2C[C@@H]2c2cccs2)cc1
CC[C@H](C)COc1ccc([C@H](CN)NC(=O)[C@H]2C[C@@H]2c2cccs2)c(C)c1
CCc1ccc(-c2ccc([C@H](CO)NC(=O)[C@H]3C[C@@H]3c3cccs3)c(OC)c2)cc1
CCCC(C)COc1ccc([C@H](CN2CCN(C)CC2)NC(=O)[C@H]2C[C@@H]2c2cccs2)cc1 (stereo partly drawn)
CC[C@H](NC(=O)[C@H]1C[C@@H]1c1ccccc1)c1ccc(-c2ccc(OC)cc2)cc1
CCc1ccc(-c2ccc([C@H](CO)NC(=O)[C@H]3C[C@@H]3c3cccs3)cc2)cc1
